Reference: publication PMC6359284, “Identification, Characterization, and Optimization of Integrin αvβ6-Targeting Peptides from a One-Bead One-Compound (OBOC) Library: Towards the Development of Positron Emission Tomography (PET) Imaging Agents” (Molecules, 2019)
Values joined by “and” are separate entries in the source; they are usually repeats but may differ in a detail not shown here. Identical values can stand only once. Like-named read-outs stand apart in the source and are kept apart here. Square brackets hold non-standard residues; d marks the D form. Primed or numbered codes have the meaning given here. Ends that are not written are not given here. Peptide text beside a SMILES is read from it. * marks the point of attachment. (18F)FB = 4-[18F]fluorobenzoyl, radiolabelled form of FB, O=C(c1ccc([18F])cc1)*; PEG12 = NCCOCCOCCOCCOCCOCCOCCOCCOCCOCCOCCOCCOCCC(=O)O; Benzoyl(4-F) = O=C(c1ccc(F)cc1)*; PEG28′ = not defined here

Experiments:
[1] = system: DX3puro (αvβ6−) cells; assay: 18F-radiolabeled peptide cell binding assay, αvβ6− cells; format: cell-based; conditions: 60 min incubation at 37 °C, n = 3
Experimental: (§1) Cell binding assay was performed as previously described. […] The ^18F-radiolabeled peptide was prepared in a stock solution of 148 kBq in 1 mL PBS (pH 7.2). Aliquots of each ^18F-radiolabeled peptide (50 μL, 7.4 kBq per sample) were added to each cell sample and incubated at 37 °C for 1 h with frequent suspension. After incubation, each sample was centrifuged and the supernatant was collected. The cell pellet was washed with 500 μL PBS, centrifuged, and the supernatant was combined with the previously collected supernatant samples. The cell pellet was resuspended in 600 μL PBS and transferred to gamma counter tubes. All pellet and supernatant samples were measured in a Wizard 1470 gamma counter (Perkin Elmer, Waltham, MA, USA). Cell binding percentage for each cell line was calculated as the radioactivity associated, with pellet divided by the total radioactivity associated with both the pellet and supernatant.

[2] = system: DX3puroβ6 (αvβ6+) cells; assay: 18F-radiolabeled peptide cell binding assay, αvβ6+ cells; format: cell-based; conditions: 60 min incubation at 37 °C, n = 3
Experimental: as §1

[3] = molecular target: T1, integrin αvβ3 (Homo sapiens, UniProt P05106+P06756); assay: Competitive binding ELISA, purified integrin αvβ3; conditions: competitive ELISA vs biotinylated vitronectin, n = 3
T1 construct: purchased R&D Systems
Experimental: (§2) Competitive binding ELISAs were performed to evaluate the binding affinity of each peptide relative to each integrin’s biotinylated natural ligand (transforming growth factor beta 1 latency-associated peptide or TGFβ1-LAP (G&P Biosciences, Santa Clara, CA, USA) for integrins αvβ6 and αvβ8, fibronectin (Thermo Fisher, Waltham, MA, USA) for integrin αvβ1, and vitronectin (Thermo Fisher) for integrins αvβ3 and αvβ5), as previously described. In brief, anti-αv antibody (P2W7, 5 μg/mL, Abcam) was plated (50 μL/well) at 37 °C for 1 h, washed with PBS (3×), and blocked overnight with blocking buffer (300 μL/well, 5% bovine serum albumin (BSA), 1% Tween 20, in PBS), followed by washing with PBS (3×). […] The plate was incubated at 37 °C for 1 h, then washed with wash buffer (3×). A 1:1000 dilution of ExtrAvidin Horseradish Peroxidase (HRP) was added to each well (50 μL/well), incubated at 37 °C for 1 h, and then washed with wash buffer (3×). The ExtrAvidin HRP was detected with 3,3′,5,5′-tetramethylbenzidine (50 μL/well, Promega, Madison, WI, USA) for 10–15 min at room temperature. The reaction was stopped by adding 1N H2SO4 (50 μL/well) and the absorbance was measured in a Multiscan Ascent plate reader (Thermo Fisher) at 450 nm. Half-maximal inhibitory concentration (IC50) of peptides was determined fitting to sigmoidal dose-response model in GraphPad Prism 5.0 (San Diego, CA, USA).

[4] = molecular target: T2, integrin αvβ6 (Homo sapiens, UniProt P06756+P18564); assay: Competitive binding ELISA, purified integrin αvβ6; conditions: for selectivity ratio for integrin αvβ6 compared to αvβ5: from ELISA IC50 values
T2 construct: purchased R&D Systems
Experimental: as §2

[5] = Serum stability assay in mouse serum; format: in vitro ADME; conditions: 37 °C, radio-RP-HPLC
Experimental: Peptide stability was evaluated in mouse serum as previously described. In brief, formulated ^18F-radiolabeled peptide (~3.7 MBq in PBS) was incubated with mouse serum (500 μL, Sigma Aldrich, St. Louis, MO) at 37 °C for 1 h.

[6] = molecular target: T3, integrin αvβ8 (Homo sapiens, UniProt P06756+P26012); assay: Competitive binding ELISA, purified integrin αvβ8; conditions: competitive ELISA vs biotinylated TGFβ1-LAP, n = 3
T3 construct: purchased R&D Systems
Experimental: as §2

[7] = molecular target: T4, integrin αvβ1 (Homo sapiens, UniProt P05556+P06756); assay: Competitive binding ELISA, purified integrin αvβ1; conditions: competitive ELISA vs biotinylated fibronectin, n = 3
T4 construct: purchased R&D Systems
Experimental: as §2

[8] = competitive ELISA vs biotinylated TGFβ1-LAP, n = 3, read-out: IC50 (μM) αvβ6

Row | Compound | % binding to DX3puro (αvβ6−) cells [1] | % binding to DX3puroβ6 (αvβ6+) cells [2] | IC50 [4, 8] [µM] | % Intact (1 h) [5] | also measured
1 | [^18F]FB-VGDLTYLKK ({(18F)FB}-VGDLTYLKK-NH2) [[^18F]1a] | less than 2% | less than 2% | – | – | –
2 | CC[C@H](C)[C@H](NC(=O)CN)C(=O)N[C@@H](CC(=O)O)C(=O)N[C@@H](CC(C)C)C(=O)N[C@H](C(=O)N[C@@H](CO)C(=O)N[C@@H](CC(C)C)C(=O)N[C@H](C(=O)N[C@@H](CCCCNC(=O)c1ccc(F)cc1)C(N)=O)[C@@H](C)O)[C@@H](C)O [compound 4] (H-GIDLTSLTK(Benzoyl(4-F))-NH2; N-terminus assumed) | – | – | > 100 | – | IC50 [3]: > 100 µM
3 | FB-VGDLTYLKK([^18F]FB)-PEG28 ({Benzoyl(4-F)}-VGDLTYLKK((18F)FB)[PEG28′]) [[^18F]1h] | less than 2% | less than 2% | – | > 95% and 95% | –
4 | CC(C)C[C@H](NC(=O)[C@H](Cc1ccc(O)cc1)NC(=O)[C@@H](NC(=O)[C@H](CC(C)C)NC(=O)[C@H](CC(=O)O)NC(=O)CNC(=O)[C@@H](NC(=O)c1ccc(F)cc1)C(C)C)[C@@H](C)O)C(=O)N[C@@H](CCCCN)C(=O)N[C@@H](CCCCNC(=O)c1ccc(F)cc1)C(N)=O [1e] | – | – | 0.84 ± 0.36 | – | –
5 | CC(C)C[C@H](NC(=O)[C@H](Cc1ccc(O)cc1)NC(=O)[C@@H](NC(=O)[C@H](CC(C)C)NC(=O)[C@H](CC(=O)O)NC(=O)CNC(=O)[C@@H](NC(=O)CCOCCOCCOCCOCCOCCOCCOCCOCCOCCOCCOCCOCCN)C(C)C)[C@@H](C)O)C(=O)N[C@@H](CCCCN)C(=O)N[C@@H](CCCCNC(=O)c1ccc(F)cc1)C(N)=O [1d] (H-[PEG12]VGDLTYLKK(Benzoyl(4-F))-NH2; N-terminus assumed) | – | – | > 100 | – | –
6 | CN[C@H](C(=O)NCC(=O)N[C@@H](CC(=O)O)C(=O)N[C@@H](CC(C)C)C(=O)N[C@H](C(=O)N[C@@H](Cc1ccc(O)cc1)C(=O)N[C@@H](CC(C)C)C(=O)N[C@@H](CCCCN)C(=O)N[C@@H](CCCCNC(=O)c1ccc(F)cc1)C(N)=O)[C@@H](C)O)C(C)C [1c] | – | – | > 5 | – | –
7 | CC(C)C[C@H](NC(=O)[C@H](Cc1ccc(O)cc1)NC(=O)[C@@H](NC(=O)[C@H](CC(C)C)NC(=O)[C@H](CC(=O)O)NC(=O)CNC(=O)[C@@H](N)C(C)C)[C@@H](C)O)C(=O)N[C@@H](CCCCN)C(=O)N[C@@H](CCCCNC(=O)c1ccc(F)cc1)C(N)=O [compound 1] (H-VGDLTYLKK(Benzoyl(4-F))-NH2; N-terminus assumed) | – | – | – | – | IC50 [6]: 5.3 ± 0.14 µM; selectivity ratio for integrin αvβ6 compared to the other integrins (αvβ1, αvβ3, and αvβ5) [4]: > 200 :1; IC50 ([4]; read-out: IC50 (μM) αvβ6): 0.45 ± 0.06 µM
8 | VGDLTYLKK([^18F]FB) (VGDLTYLKK((18F)FB)-NH2) [[^18F]1] | 11.7 ± 2.2% | 12.8 ± 1.9% | – | 25% | –
9 | CC(=O)N[C@H](C(=O)NCC(=O)N[C@@H](CC(=O)O)C(=O)N[C@@H](CC(C)C)C(=O)N[C@H](C(=O)N[C@@H](Cc1ccc(O)cc1)C(=O)N[C@@H](CC(C)C)C(=O)N[C@@H](CCCCN)C(=O)N[C@@H](CCCCNC(=O)c1ccc(F)cc1)C(=O)NCCOCCOCCOCCOCCOCCOCCOCCOCCOCCOCCOCCOCCOCCOCCOCCOCCOCCOCCOCCOCCOCCOCCOCCOCCOCCOCCOCCOCCC(N)=O)[C@@H](C)O)C(C)C [1g] | – | – | > 100 | – | –
10 | CSCC[C@H](NC(=O)[C@H](CC(C)C)NC(=O)[C@H](CC(=O)O)NC(=O)CNC(=O)[C@@H](N)CCCNC(=N)N)C(=O)N[C@@H](CCCCN)C(=O)N[C@@H](CC(C)C)C(=O)N[C@@H](C)C(=O)N[C@@H](CCCCNC(=O)c1ccc(F)cc1)C(N)=O [compound 2] (H-RGDLMKLAK(Benzoyl(4-F))-NH2; N-terminus assumed) | – | – | – | – | IC50 [6]: 2.6 ± 0.35 µM; IC50 [4]: 0.95 ± 0.17 µM; selectivity ratio for integrin αvβ6 compared to αvβ5 [4]: > 100 :1
11 | CC(C)C[C@H](NC(=O)[C@H](Cc1ccc(O)cc1)NC(=O)[C@@H](NC(=O)[C@H](CC(C)C)NC(=O)[C@H](CC(=O)O)NC(=O)CNC(=O)[C@@H](NC(=O)c1ccc(F)cc1)C(C)C)[C@@H](C)O)C(=O)N[C@@H](CCCCN)C(=O)N[C@@H](CCCCNC(=O)c1ccc(F)cc1)C(=O)NCCOCCOCCOCCOCCOCCOCCOCCOCCOCCOCCOCCOCCOCCOCCOCCOCCOCCOCCOCCOCCOCCOCCOCCOCCOCCOCCOCCOCCC(N)=O [1h] | – | < 2% | 1.47 ± 0.23 | > 95% | –
12 | CC(C)C[C@H](NC(=O)[C@H](Cc1ccc(O)cc1)NC(=O)[C@@H](NC(=O)[C@H](CC(C)C)NC(=O)[C@H](CC(=O)O)NC(=O)CNC(=O)[C@@H](NC(=O)c1ccc(F)cc1)C(C)C)[C@@H](C)O)C(=O)N[C@@H](CCCCN)C(=O)N[C@@H](CCCCN)C(N)=O [1a] ({Benzoyl(4-F)}-VGDLTYLKK-NH2) | – | – | 0.81 ± 0.09 | – | –
13 | CC(C)C[C@H](NC(=O)[C@H](CC(=O)O)NC(=O)CNC(=O)[C@@H](N)CCCNC(=N)N)C(=O)N[C@@H](C)C(=O)N[C@@H](CC(=O)O)C(=O)N[C@@H](CC(C)C)C(=O)N[C@@H](CCCNC(=N)N)C(=O)N[C@@H](CCCCNC(=O)c1ccc(F)cc1)C(N)=O [compound 3] (H-RGDLADLRK(Benzoyl(4-F))-NH2; N-terminus assumed) | – | – | – | – | selectivity ratio for integrin αvβ6 compared to αvβ5 [4]: > 100 :1
14 | VGDLTYLKK([^18F]FB)-PEG28 (VGDLTYLKK((18F)FB)[PEG28′]) [[^18F]1f] | less than 2% | less than 2% | – | > 95% and 95% | –
15 | CC(C)C[C@H](NC(=O)[C@H](Cc1ccc(O)cc1)NC(=O)[C@@H](NC(=O)[C@H](CC(C)C)NC(=O)[C@H](CC(=O)O)NC(=O)CNC(=O)[C@@H](N)C(C)C)[C@@H](C)O)C(=O)N[C@@H](CCCCN)C(=O)N[C@@H](CCCCNC(=O)c1ccc(F)cc1)C(=O)NCCOCCOCCOCCOCCOCCOCCOCCOCCOCCOCCOCCOCCOCCOCCOCCOCCOCCOCCOCCOCCOCCOCCOCCOCCOCCOCCOCCOCCC(N)=O [1f] | – | < 2% | 3.7 ± 1 | > 95% | –
16 | RGDLRELAK([^18F]FB) (RGDLRELAK((18F)FB)) [[^18F]5] | 5.9 ± 0.8% | 6.4 ± 0.1% | – | 0% | –
17 | VGDLTYLKK([^18F]FB)KVART [[^18F]1i] | – | 5.0 ± 0.5% | – | > 99% and 99% | –
18 | CC(=O)N[C@H](C(=O)NCC(=O)N[C@@H](CC(=O)O)C(=O)N[C@@H](CC(C)C)C(=O)N[C@H](C(=O)N[C@@H](Cc1ccc(O)cc1)C(=O)N[C@@H](CC(C)C)C(=O)N[C@@H](CCCCN)C(=O)N[C@@H](CCCCNC(=O)c1ccc(F)cc1)C(N)=O)[C@@H](C)O)C(C)C [1b] | – | – | > 100 | – | –
19 | RGDLADLRK([^18F]FB) (RGDLADLRK((18F)FB)) [[^18F]3] | 5.3 ± 2.8% | 7.7 ± 3.8% | – | 0% | –
20 | CC(C)C[C@H](NC(=O)[C@H](CCC(=O)O)NC(=O)[C@H](CCCNC(=N)N)NC(=O)[C@H](CC(C)C)NC(=O)[C@H](CC(=O)O)NC(=O)CNC(=O)[C@@H](N)CCCNC(=N)N)C(=O)N[C@@H](C)C(=O)N[C@@H](CCCCNC(=O)c1ccc(F)cc1)C(N)=O [compound 5] (H-RGDLRELAK(Benzoyl(4-F))-NH2; N-terminus assumed) | – | – | – | – | IC50 [7]: 1.9 ± 0.3 µM; selectivity ratio for integrin αvβ6 compared to αvβ5 [4]: > 100 :1; IC50 ([4]; read-out: IC50 (μM) αvβ6, competitive ELISA vs biotinylated TGFβ1-LAP, n = 3): 0.89 ± 0.14 µM
21 | [^18F]FB-PEG28-A20FMDV2-K16R-PEG28 [reference compound] | 1.5 ± 0.1% | 77.1 ± 0.1% | – | – | –
